Experiments:
Format in all cases: functional, organism-based
[1] = test system: Streptococcus mutans; assay: Antibacterial activity against Streptococcus mutans JCM 5705 assessed as reduction of viable organism at 1 M followed by 300 mW of laser irradiation measured within 3 mins
[2] = test system: Staphylococcus aureus; assay: Antibacterial activity against Staphylococcus aureus ATCC 25923 assessed as concentration required to 4 log reduction of viable organism measured after 300 mW of laser irradiation
[3] = test system: Staphylococcus aureus; assay: Antibacterial activity against Staphylococcus aureus ATCC 25923 assessed as reduction of viable organism at 1 M followed by 300 mW of laser irradiation measured within 3 mins
[4] = test system: Enterococcus faecalis; assay: Antibacterial activity against Enterococcus faecalis ATCC 29212 assessed as concentration required to 4 log reduction of viable organism measured after 300 mW of laser irradiation
[5] = test system: Aggregatibacter actinomycetemcomitans; assay: Antibacterial activity against Aggregatibacter actinomycetemcomitans JCM 2434 assessed as concentration required to 4 log reduction of viable organism measured after 300 mW of laser irradiation
[6] = test system: Streptococcus mutans; assay: Antibacterial activity against Streptococcus mutans JCM 5705 assessed as reduction of biofilm at 1 M followed by 300 mW of laser irradiation measured within 3 mins by scanning electron microscopy
[7] = test system: Aggregatibacter actinomycetemcomitans; assay: Antibacterial activity against Aggregatibacter actinomycetemcomitans JCM 2434 assessed as reduction of viable organism at 1 M followed by 300 mW of laser irradiation measured within 3 mins
[8] = test system: Streptococcus mutans; assay: Antibacterial activity against Streptococcus mutans JCM 5705 assessed as reduction of biofilm measured within 3 mins by scanning electron microscopy
[9] = test system: Streptococcus mutans; assay: Antibacterial activity against Streptococcus mutans JCM 5705 assessed as concentration required to 5 log reduction of biofilm measured after 300 mW of laser irradiation by scanning electron microscopy
[10] = test system: Enterococcus faecalis; assay: Antibacterial activity against Enterococcus faecalis ATCC 29212 assessed as reduction of viable organism at 1 M followed by 300 mW of laser irradiation measured within 3 mins
[11] = test system: Streptococcus mutans; assay: Antibacterial activity against Streptococcus mutans JCM 5705 assessed as concentration required to 4 log reduction of viable organism measured after 300 mW of laser irradiation
[12] = test system: Enterococcus faecalis; assay: Antibacterial activity against Enterococcus faecalis ATCC 29212 assessed as reduction of viable organism measured after 300 mW of laser irradiation

[OH]
log10CFU/ml [1]: 4
Activity [2]: 173 µM
log10CFU/ml [3]: > 4
Activity [4]: 258 µM
Activity [5]: 89 µM
log10CFU/ml [6]: > 5
log10CFU/ml [7]: > 4
log10CFU/ml [8]: 1
Activity [9]: 258 µM
log10CFU/ml [10]: > 4
Activity [11]: 173 µM
Activity [12]: Dose-dependent effect

Source: ChEMBL document CHEMBL1687820, “Photolysis of hydrogen peroxide, an effective disinfection system via hydroxyl radical formation” (Antimicrob Agents Chemother, 2010)
